Test results as given in paper PMC11561622, “Evaluating Antimalarial Proteasome Inhibitors for Efficacy in Babesia Blood Stage Cultures” (ACS Omega, 2024).

Columns and labels:
B. divergens = system: B. divergens; parameters: method as in PMID 30103207; details: bovine erythrocyte cultures, cited from earlier work
β1 subunit of Bd20S = assay: Fluorogenic kinetic assay of enriched Bd20S with PA28α and the β1 substrate Ac-nPnD-amc (50 mM HEPES pH 7.5, 1 mM DTT), no preincubation stated, rate of amc release read between 60 and 90 min, 8 µL volume.; format: biochemical; details: n = 3
Procedure: (§1) To assess the enzyme activity, 8 ng of purified preparation was preincubated with 0 to 4000 nM recombinant human PA28α for 1 h at room temperature (RT). The enzyme activity was then assayed with 50 μM Suc-LLVY-amc in 50 mM HEPES, pH 7.5, and 1 mM DTT in the presence of 250 nM PA28α. To evaluate the substrate specificity for β5, β2, and β1 subunits, a set of available proteasome substrates was screened that included Suc-LLVY-amc, Z-VLR-amc and Z-LLE-amc, Ac-FnKL-amc, Ac-nPnD-amc, Ac-RYFD-amc, Ac-FRSR-amc, and Ac-GWYL-amc. Bd20S was initially activated with PA28α and the rate of release of 7-amino-4-methyl coumarin (amc) was quantified over time following addition of the substrates. For control, 6 μM marizomib (MZB, MedChemExpress) was used to ensure substrate cleavage by proteasome. For inhibition studies, IC50 values were measured using presteady-state enzyme kinetics. Five or 100 nL of inhibitor at concentrations ranging from 10 mM to 170 nM was dispensed using the ECHO 650 liquid handler (Beckman). Subsequently, 4 μL of 100 μM substrate was added, followed by 4 μL of Bd20S, and the release of amc was immediately measured. The IC50 values were calculated from the fluorescence units per second (RFU/s) recorded between 60 and 90 min after the reaction. […] Data were analyzed and plotted using GraphPad software.

β5 subunit of Bd20S = assay: Fluorogenic kinetic assay of enriched Bd20S with PA28α and the β5 substrate Ac-FnKL-amc (50 mM HEPES pH 7.5, 1 mM DTT), no preincubation stated, rate of amc release read between 60 and 90 min, 8 µL volume.; format: biochemical; details: n = 3
Procedure: as §1

β2 subunit of Bd20S = assay: Fluorogenic kinetic assay of enriched Bd20S with PA28α and the β2 substrate Z-VLR-amc (50 mM HEPES pH 7.5, 1 mM DTT), no preincubation stated, rate of amc release read between 60 and 90 min, 8 µL volume.; format: biochemical; details: n = 3
Procedure: as §1

[1] = system: B. divergens proteasome β5 subunit; format: biochemical, Babesia divergens; details: Suc-LLVY-amc; for proteasome activity relative to activity with PA28α: Buffer B
Procedure: (§2) B. divergens and B. microti protein lysates were prepared from infected red blood cells. Briefly, red blood cells were lysed with 0.15% saponin prepared in 1× Phosphate-Buffered Saline (PBS), pH 7.5, to release intact parasites. Parasites were washed with 1× PBS, pH 7.5 (PBS), by centrifugation and the pellets were stored at −80 °C in PBS plus 20% glycerol. To prepare protein lysates for enzymatic assays, parasites were thawed and transferred to 50 mM HEPES (pH 7.5), 10 μM E64, 100 μM AESBF, 1 μM Pepstatin A, and 1 mM DTT (all Sigma-Aldrich). Cells were ruptured by ultrasonication with an amplitude of 0.5 for 3 cycles of 15 s on ice. To prepare protein lysates for activity-based probing and proteasome purification, parasites were thawed and transferred to 20 mM Tris-HCl, pH 7.5, 1 mM DTT, 10 μM E64, and 5% glycerol. The lysate was sonicated on ice for 3 times and clarified by centrifugation at 17,000g for 10 min at 4 °C.
To further improve the detection of the β5 subunit activity with the Suc-LLVY-amc substrate of the Babesia proteasome as previously published,[27] we aimed to further optimize assay conditions. However, to reduce the number of experimental animals in the study, assay conditions were optimized using protein lysates of B. divergens, which can be grown in vitro, instead of B. microti lysates, which need to be maintained in mice. […] Assay conditions were optimized in 50 μL volumes in round-bottom 96-well plates. Two assay buffers were evaluated. Buffer A, as described previously,[27] consists of 20 mM HEPES, pH 8, 1 mM ATP, and 1 μM E64, while Buffer B consists of 50 mM HEPES, pH 7.5, 5 mM ATP, 10 μM E64, 100 μM AESBF, 1 μM Pepstatin A, and 1 mM DTT. Buffers A and B were tested with either 0.02% SDS or 6.67 ng of PA28 as activators of the proteasome activity. […] The release of the AMC fluorophore was monitored at 37 °C in a Synergy HTX multimode reader (BioTek) with excitation and emission wavelengths set to 340 and 460 nm, respectively.
Proteasome activity in B. microti and B. divergens lysates was screened in the presence of carmaphycin B (CPB) and numerous analogs that were previously designed to target the P. falciparum 20S proteasome.[30] A pool of lysates was made for each species to ensure that equal amounts of the lysates were used in each inhibition reaction. Inhibitors were transferred to black 384-well plates with the ATS acoustic transfer system (ATS-100, Biosera). Lysates were incubated with inhibitors for 30 min at room temperature and activity was assayed in 30 μL reactions. Each reaction mixture contained 5 μL of Babesia lysate, 10 nL of the inhibitor (final concentration of 133.33 nM), and 25 μL of assay buffer with 25 μM substrate succinyl-Leu-Leu-Val-Tyr-7-amido-4-methylcoumarin (Suc-LLVY-amc). The release of the AMC fluorophore was monitored at 37 °C in a Synergy HTX multimode reader (BioTek Instruments, Winooski, VT) with excitation and emission wavelengths set to 340 and 460 nm, respectively. Activity was quantified as RFU per second and normalized to the DMSO control reactions.

[2] = system: catalytic subunits of Bd20S; assay: Activity-based probe labeling (Me4BodipyFL-Ahx3Leu3VS) of Bd20S catalytic subunits; format: binding, Babesia divergens; details: lysates from CFZ- and CPB-treated cells, vs vehicle
[3] = system: B. microti proteasome β5 subunit; assay: β5 proteasome activity in B. microti lysates (Suc-LLVY-amc); format: biochemical, Babesia microti; details: 133.33 nM inhibitor, relative to DMSO
Procedure: as §2
To further improve the detection of the β5 subunit activity with the Suc-LLVY-amc substrate of the Babesia proteasome as previously published,[27] we aimed to further optimize assay conditions. However, to reduce the number of experimental animals in the study, assay conditions were optimized using protein lysates of B. divergens, which can be grown in vitro, instead of B. microti lysates, which need to be maintained in mice. […] Two assay buffers were evaluated. […] The release of the AMC fluorophore was monitored at 37 °C in a Synergy HTX multimode reader (BioTek) with excitation and emission wavelengths set to 340 and 460 nm, respectively.
Proteasome activity in B. microti and B. divergens lysates was screened in the presence of carmaphycin B (CPB) and numerous analogs that were previously designed to target the P. falciparum 20S proteasome.[30] […] The release of the AMC fluorophore was monitored at 37 °C in a Synergy HTX multimode reader (BioTek Instruments, Winooski, VT) with excitation and emission wavelengths set to 340 and 460 nm, respectively. Activity was quantified as RFU per second and normalized to the DMSO control reactions.

[4] = system: endogenous polyubiquitinated proteins in B. divergens; assay: Western blot of polyubiquitinated proteins in treated B. divergens cultures; format: cell-based, Babesia divergens; details: 200 nM, 24 h, anti-Ubiquitin K48 western blot, vs 0.1% DMSO
Procedure: To assess the on-target effect of proteasome inhibition, protein lysates of B. divergens isolated from bovine erythrocyte cultures were evaluated for the accumulation of polyubiquitinated proteins. The B. divergens cultures underwent two 12 h treatments (totaling 24 h) with 200 nM of the inhibitor in culture medium. Parasites were released from RBCs and protein lysates were prepared as described above. The resulting samples were then centrifuged at 15,000g for 15 min at 4 °C and protein concentrations of the resulting supernatant were determined using Bradford assay.[29] Samples were prepared for SDS-PAGE in reducing Laemmli buffer supplemented with β-mercaptoethanol. Ten micrograms of protein was applied per lane and proteins were separated on gradient (4–15%) Criterion TGX Stain-Free Precast gels (BioRad) in Tris-Glycine-SDS running buffer (25 mM Tris, 192 mM glycine, and 0.1% (w/vol) SDS, pH 8.3) and visualized using TGX stain-free chemistry (BioRad). […] After washing (3 × 10 min) in PBS-T, signals were detected using Clarity Max Western ECL substrate (BioRad), visualized using a ChemiDoc MP imager, analyzed, and adjusted using the ImageLab freeware (BioRad).

Bd20S = assay: Fluorogenic substrate screen with Bd20S/PA28α with and without marizomib; format: biochemical, Babesia divergens; details: 6 μM MZB
Procedure: as §1

COc1ccc(C[C@H](NC(=O)[C@H](C)NC(=O)CN2CCOCC2)C(=O)N[C@@H](Cc2ccccc2)C(=O)C2(C)CO2)cc1 (stereo in doubt) [ONX-0914]
concentration range significantly reducing B. divergens growth (B. divergens): 25 to 200 nM

CCCCCC(=O)N[C@H](C(=O)N[C@@H](CCS(C)(=O)=O)C(=O)N[C@@H](CC(C)C)C(=O)[C@@]1(C)CO1)C(C)C [CPB, carmaphycin B]
IC50 (β1 subunit of Bd20S): > 3000 nM | IC50 (β5 subunit of Bd20S): 27.9 nM | IC50 (β2 subunit of Bd20S): 34.3 nM

CC(C)C[C@H](NC(=O)[C@H](CCc1ccccc1)NC(=O)CN1CCOCC1)C(=O)N[C@@H](Cc1ccccc1)C(=O)N[C@@H](CC(C)C)C(=O)[C@@]1(C)CO1 [carfilzomib]
inhibition of β5 activity in B. divergens lysate (in words) ([1]; 133.33 nM inhibitor, relative to DMSO): completely inactivate | decrease of enzyme activity ([1]; B. divergens lysate, with PA28α): > 95% | concentration range significantly reducing B. divergens growth (B. divergens): 25 to 200 nM | EC50 (B. divergens; read-out: EC50 B. divergens growth): 29 nM | labeling of catalytic subunits by activity-based probe [2]: significantly reduced | inhibition of β5 activity in B. microti lysate (in words) [3]: inhibited | accumulation of endogenous polyubiquitinated proteins [4]: marked accumulation

CC[C@H](C)[C@H](NC(=O)[C@H]([C@@H](C)CC)N(C)C(C)=O)C(=O)N[C@H](C(=O)N[C@@H](CC(C)C)C(=O)[C@@]1(C)CO1)[C@@H](C)O [epoxomicin]
concentration range significantly reducing B. divergens growth (B. divergens): 25 to 200 nM

C[C@@]12OC(=O)[C@]1([C@@H](O)[C@@H]1C=CCCC1)NC(=O)[C@@H]2CCCl [marizomib]
activity with all fluorogenic substrates in presence of inhibitor (Bd20S): eliminated

PA28α: recombinant human proteasome activator PA28α (Uniprot Q06323)
increase of enzyme activity by activator ([1]; B. divergens lysate, compared with SDS): 3 fold

PA28β: human proteasome activator subunit PA28β (BioTechne #E-382)
proteasome activity relative to activity with PA28α ([1]; B. divergens lysate): 14.41%

PA28γ: human proteasome activator subunit PA28γ (BioTechne #E-384)
proteasome activity relative to activity with PA28α ([1]; B. divergens lysate): 12.83%
